{"source": "patent US8497083B2", "about": "“Fructosyl amino acid oxidase” (priority 2009, dated 2013)", "biological_target": "T1, fructosyl amino acid oxidase from Pichia sp. N1-1 (N1-1 FAOD), wild type, SEQ ID NO: 2 (Pichia sp. N1-1, UniProt Q3L8U0)", "T1 construct": "427 aa", "T1 sequence (Q3L8U0 1-427)": "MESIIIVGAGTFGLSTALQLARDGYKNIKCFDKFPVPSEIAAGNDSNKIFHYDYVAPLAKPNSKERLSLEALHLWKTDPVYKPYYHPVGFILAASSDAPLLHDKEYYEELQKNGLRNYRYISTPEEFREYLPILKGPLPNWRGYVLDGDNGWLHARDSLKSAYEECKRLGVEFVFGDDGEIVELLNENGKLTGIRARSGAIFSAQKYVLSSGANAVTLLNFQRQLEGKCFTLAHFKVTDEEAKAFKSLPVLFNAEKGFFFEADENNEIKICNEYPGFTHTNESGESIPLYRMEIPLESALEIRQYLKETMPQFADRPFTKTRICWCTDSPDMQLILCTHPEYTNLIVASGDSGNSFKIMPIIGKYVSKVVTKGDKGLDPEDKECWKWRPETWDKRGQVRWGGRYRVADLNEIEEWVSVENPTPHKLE", "test": "Dehydrogenase activity kinetics (mPMS/DCIP), N1-1 FAOD wild type", "type": "biochemical", "settings": "mPMS/DCIP over 4AA/TODB/POD", "source_text": "As used herein, “dehydrogenase activity” is an enzymatic activity (Vmax) of the fructosyl amino acid oxidase to catalyze oxidation of fructosyl amino acid to generate 2-keto-D-glucose and the corresponding amino acid while utilizing an electron mediator other than oxygen as an electron acceptor. The dehydrogenase activity may be assayed by measuring the amount of electrons transferred to the mediator using, for example, one of mPMS/DCIP (1-methoxy-5-methylphenazinium methylsulfate/2,6-dichloroindophenol), cPES (trifluoro-acetate-1-(3-carboxy-propoxy)-5-ethyl-phenanzinium, NA BM31—1144 (N,N-bis-(hydroxyethyl)-3-methoxynitrosoaniline hydrochloride, NA BM31—1008 (N,N-bis-hydroxyethyl-4-nitrosoaniline) and N—N-4-dimethyl-nitrosoaniline.\nAs used herein in the context of the relative or quantitative activity, the dehydrogenase activity is specifically defined to be the mole amount of the substrate (fructosyl amino acid) oxidized per unit time measured by the amount of electrons transferred to the mediator at 25° C. in 10 mM PPB (pH 7.0), 0.6 mM DCIP, and 6 mM methoxy PMS (mPMS).\nEscherichia coli BL21 (DE3) cells harboring expression vectors of N1-1 FAOD (SEQ ID NO: 2) mutants were grown in 150 ml of LB medium containing 50 μg/ml kanamycin at 37° C. […] The formation of quinoneimine dye was measured spectrophotometrically at 546 nm. […]", "data": [{"smiles": "CC(C)[C@H](NCC1(O)OC[C@@H](O)[C@@H](O)[C@@H]1O)C(=O)O", "note": "(some centres unmarked) [f-αVal, fructosyl valine]", "values": [{"measurement": "B/A (Vmax dehydrogenase/Vmax oxidase)", "setting": "crude preparation", "result": 1.2}, {"measurement": "B/A (Vmax dehydrogenase/Vmax oxidase)", "setting": "purified enzyme", "result": 1.1}]}]}
